Assay results from ChEMBL document CHEMBL1201862, “PubChem BioAssay data set” (2004).
The source made the active and inactive calls.

How the values were obtained:
[1] = target: T1, Carboxy-terminal domain RNA polymerase II polypeptide A small phosphatase 1 (Homo sapiens, UniProt Q9GZU7); test: inhibitors of CTDSP1, concentration-response testing, biochemical assay, absorbance-based, actives from ultra-high-throughput screening (AID 540297); format: functional
T1 sequence (Q9GZU7 whole entry): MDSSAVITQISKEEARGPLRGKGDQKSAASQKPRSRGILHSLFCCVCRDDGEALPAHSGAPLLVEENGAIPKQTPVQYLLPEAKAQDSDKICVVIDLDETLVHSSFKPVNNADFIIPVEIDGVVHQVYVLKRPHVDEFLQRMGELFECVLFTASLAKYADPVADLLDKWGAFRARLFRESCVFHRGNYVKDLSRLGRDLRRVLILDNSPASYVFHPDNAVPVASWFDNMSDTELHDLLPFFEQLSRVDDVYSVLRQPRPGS

Fatty acid synthase [2] = target: T2, Fatty acid synthase (Homo sapiens, UniProt P49327); test: FAS thioesterase domain inhibitors, dose response, biochemical, endpoint fluorescence intensity, uHTS hits (AID 624327); format: functional;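 also: fluorescence from hydrolysis of an O-methyl fluorescein acyl ester substrate by the enzyme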
T2 sequence (P49327 whole entry, the tested form may be a part): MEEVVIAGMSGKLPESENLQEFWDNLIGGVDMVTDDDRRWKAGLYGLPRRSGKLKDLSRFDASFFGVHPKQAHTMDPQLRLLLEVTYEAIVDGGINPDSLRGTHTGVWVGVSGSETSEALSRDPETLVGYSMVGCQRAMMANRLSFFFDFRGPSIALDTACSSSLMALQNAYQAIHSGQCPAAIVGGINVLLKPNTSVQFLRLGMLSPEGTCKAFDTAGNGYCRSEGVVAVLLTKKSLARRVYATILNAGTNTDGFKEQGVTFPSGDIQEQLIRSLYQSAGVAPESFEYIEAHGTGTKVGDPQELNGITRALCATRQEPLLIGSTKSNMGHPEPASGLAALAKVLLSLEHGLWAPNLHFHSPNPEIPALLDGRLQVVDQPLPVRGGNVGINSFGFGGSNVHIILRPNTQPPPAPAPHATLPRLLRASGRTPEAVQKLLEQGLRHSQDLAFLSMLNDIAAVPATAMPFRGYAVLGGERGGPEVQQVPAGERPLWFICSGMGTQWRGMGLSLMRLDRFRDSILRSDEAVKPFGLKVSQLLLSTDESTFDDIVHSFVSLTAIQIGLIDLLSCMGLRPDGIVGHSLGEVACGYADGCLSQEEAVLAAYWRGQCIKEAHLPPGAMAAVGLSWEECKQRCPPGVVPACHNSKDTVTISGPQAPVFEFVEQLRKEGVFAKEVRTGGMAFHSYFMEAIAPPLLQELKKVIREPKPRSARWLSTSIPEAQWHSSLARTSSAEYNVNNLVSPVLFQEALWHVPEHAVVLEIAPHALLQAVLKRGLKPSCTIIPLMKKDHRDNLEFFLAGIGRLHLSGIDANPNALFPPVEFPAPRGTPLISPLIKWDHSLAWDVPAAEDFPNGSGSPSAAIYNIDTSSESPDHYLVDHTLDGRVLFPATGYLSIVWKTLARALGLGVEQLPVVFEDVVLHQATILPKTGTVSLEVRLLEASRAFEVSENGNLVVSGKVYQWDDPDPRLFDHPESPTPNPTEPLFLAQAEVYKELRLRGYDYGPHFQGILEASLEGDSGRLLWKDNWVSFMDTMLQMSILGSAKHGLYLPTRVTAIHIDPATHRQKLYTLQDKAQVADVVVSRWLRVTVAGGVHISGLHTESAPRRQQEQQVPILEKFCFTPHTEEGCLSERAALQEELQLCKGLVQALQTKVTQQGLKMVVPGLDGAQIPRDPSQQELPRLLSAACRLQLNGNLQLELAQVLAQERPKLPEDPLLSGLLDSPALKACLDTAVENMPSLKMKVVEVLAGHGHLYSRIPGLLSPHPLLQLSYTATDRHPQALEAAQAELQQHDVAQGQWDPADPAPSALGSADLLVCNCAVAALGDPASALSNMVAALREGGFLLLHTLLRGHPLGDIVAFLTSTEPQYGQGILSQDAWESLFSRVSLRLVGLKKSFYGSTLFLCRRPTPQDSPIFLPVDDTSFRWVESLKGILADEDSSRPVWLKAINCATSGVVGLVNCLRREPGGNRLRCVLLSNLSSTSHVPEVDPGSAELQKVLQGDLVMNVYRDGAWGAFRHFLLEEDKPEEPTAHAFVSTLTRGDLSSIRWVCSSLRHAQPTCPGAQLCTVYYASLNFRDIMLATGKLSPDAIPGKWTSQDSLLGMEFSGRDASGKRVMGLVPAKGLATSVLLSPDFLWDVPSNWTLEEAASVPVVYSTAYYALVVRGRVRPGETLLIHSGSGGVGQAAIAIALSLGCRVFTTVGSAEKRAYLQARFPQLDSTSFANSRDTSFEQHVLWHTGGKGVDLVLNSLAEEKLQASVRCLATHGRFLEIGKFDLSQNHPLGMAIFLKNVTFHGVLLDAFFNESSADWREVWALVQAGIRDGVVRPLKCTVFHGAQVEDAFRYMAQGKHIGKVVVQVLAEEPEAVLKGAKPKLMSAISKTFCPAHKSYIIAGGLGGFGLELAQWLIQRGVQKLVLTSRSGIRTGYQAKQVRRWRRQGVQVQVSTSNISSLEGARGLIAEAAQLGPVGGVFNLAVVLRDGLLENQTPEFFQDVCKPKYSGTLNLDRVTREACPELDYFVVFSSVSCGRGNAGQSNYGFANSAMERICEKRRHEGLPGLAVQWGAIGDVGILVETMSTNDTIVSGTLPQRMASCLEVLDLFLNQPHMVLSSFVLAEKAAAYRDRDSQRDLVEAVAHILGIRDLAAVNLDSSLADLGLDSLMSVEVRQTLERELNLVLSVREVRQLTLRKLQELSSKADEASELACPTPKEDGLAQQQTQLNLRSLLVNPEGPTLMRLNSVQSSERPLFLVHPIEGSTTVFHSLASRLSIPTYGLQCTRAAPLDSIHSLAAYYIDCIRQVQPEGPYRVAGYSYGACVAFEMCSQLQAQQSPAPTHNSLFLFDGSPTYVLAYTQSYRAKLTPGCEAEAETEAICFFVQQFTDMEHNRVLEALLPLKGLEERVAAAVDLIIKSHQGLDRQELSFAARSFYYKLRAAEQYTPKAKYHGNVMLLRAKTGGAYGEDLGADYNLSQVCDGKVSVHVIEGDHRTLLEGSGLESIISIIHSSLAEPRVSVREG

Fatty acid synthase [3] = target: T2, Fatty acid synthase; test: FAS thioesterase domain inhibitors, dose response, biochemical, kinetic fluorescence intensity (AID 624326); format: functional;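 also: rate of fluorescence rise from hydrolysis of a fluorogenic O-methyl fluorescein ester substrate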
Genome polyprotein = Genome polyprotein (dengue virus type 2, UniProt P29990); test: Dengue-2 NS5 methyltransferase inhibitors, primary screen, biochemical, confirmation dose response (AID 588689); format: functional
Sequence of Genome polyprotein (P29990 2492-3391 limits assumed): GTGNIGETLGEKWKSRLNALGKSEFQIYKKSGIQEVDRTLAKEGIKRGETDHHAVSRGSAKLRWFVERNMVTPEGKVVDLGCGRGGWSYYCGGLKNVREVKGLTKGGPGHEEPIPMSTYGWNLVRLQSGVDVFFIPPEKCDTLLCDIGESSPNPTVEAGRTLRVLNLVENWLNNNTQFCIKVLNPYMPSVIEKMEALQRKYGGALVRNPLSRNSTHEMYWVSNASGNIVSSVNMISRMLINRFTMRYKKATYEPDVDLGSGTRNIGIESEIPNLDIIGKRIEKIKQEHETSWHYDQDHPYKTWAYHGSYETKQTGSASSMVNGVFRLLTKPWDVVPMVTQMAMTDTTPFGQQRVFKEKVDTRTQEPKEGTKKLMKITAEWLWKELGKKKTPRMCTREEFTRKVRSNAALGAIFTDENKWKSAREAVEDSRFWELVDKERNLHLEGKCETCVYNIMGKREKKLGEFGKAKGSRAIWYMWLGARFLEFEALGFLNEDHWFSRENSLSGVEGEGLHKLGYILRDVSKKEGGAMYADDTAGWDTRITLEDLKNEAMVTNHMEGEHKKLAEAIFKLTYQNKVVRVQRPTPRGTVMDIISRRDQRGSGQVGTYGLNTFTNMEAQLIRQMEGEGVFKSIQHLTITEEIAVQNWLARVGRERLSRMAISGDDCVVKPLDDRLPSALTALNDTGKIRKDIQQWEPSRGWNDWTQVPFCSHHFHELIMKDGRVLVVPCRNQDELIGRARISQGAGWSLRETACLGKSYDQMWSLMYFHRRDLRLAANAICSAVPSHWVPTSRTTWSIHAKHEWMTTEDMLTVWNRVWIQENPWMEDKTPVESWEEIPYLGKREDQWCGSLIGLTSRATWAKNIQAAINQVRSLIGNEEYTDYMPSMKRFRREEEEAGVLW

[4] = P. falciparum Dd2 growth inhibitors, dose response, SYBR Green, cherry-picked samples (AID 1159567); format: functional, cell-based
[5] = Luminescence Cell-Based Dose Confirmation HTS to Identify Activators of 5'UTR Stem-Loop Driven Alpha-Synuclein mRNA Translation in H4 Neuroglioblastoma Cells. [Related pubchem assays: 1829 (Project Summary), 1814 (Primary HTS)]; format: functional
[6] = Luminescence Cell-Based Dose Response HTS to Identify Activators of Luciferase Translation or Activity in H4 […] Cells. [Related pubchem assays: 1829 (Project Summary), 1814 (Primary HTS)]; format: functional
H4 = test: Luminescence Cell-Based Dose Response HTS to Identify Activators of 5'UTR Stem-Loop Driven Prion Protein mRNA Translation in H4 Neuroglioblastoma Cells. [Related pubchem assays: 1829 (Project Summary), 1814 (Primary HTS)]; format: functional; conditions: Homo sapiens
[7] = target: T3, Calpain-2 catalytic subunit (Sus scrofa, UniProt P43367); test: pig calpain II inhibitor potency, dose response, biochemical, fluorogenic peptide substrate (AID 1420); format: functional
T3 sequence (P43367 whole entry): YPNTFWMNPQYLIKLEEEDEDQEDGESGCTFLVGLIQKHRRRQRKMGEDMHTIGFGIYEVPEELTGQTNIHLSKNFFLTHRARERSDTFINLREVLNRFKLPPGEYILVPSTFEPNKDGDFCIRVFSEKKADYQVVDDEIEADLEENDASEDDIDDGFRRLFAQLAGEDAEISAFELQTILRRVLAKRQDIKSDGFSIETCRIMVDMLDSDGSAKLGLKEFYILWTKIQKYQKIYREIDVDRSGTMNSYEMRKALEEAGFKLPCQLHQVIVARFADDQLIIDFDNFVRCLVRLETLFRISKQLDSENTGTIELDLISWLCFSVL

[8] = target: T4, Heat shock factor protein 1 (Mus musculus, UniProt P38532); test: HSF1 potentiators in luciferase reporter cells, confirmation, cell-based, NIH3T3, luminescence, dose retest (AID 435004); format: functional;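 also: stress induced by proteasome inhibitor MG132 added 30 min after compound; luciferase reporter driven by HSF1 response element in NIH3T3 cells; actives raise luminescence as potentiators of the MG132 stress response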
T4 sequence (P38532 whole entry): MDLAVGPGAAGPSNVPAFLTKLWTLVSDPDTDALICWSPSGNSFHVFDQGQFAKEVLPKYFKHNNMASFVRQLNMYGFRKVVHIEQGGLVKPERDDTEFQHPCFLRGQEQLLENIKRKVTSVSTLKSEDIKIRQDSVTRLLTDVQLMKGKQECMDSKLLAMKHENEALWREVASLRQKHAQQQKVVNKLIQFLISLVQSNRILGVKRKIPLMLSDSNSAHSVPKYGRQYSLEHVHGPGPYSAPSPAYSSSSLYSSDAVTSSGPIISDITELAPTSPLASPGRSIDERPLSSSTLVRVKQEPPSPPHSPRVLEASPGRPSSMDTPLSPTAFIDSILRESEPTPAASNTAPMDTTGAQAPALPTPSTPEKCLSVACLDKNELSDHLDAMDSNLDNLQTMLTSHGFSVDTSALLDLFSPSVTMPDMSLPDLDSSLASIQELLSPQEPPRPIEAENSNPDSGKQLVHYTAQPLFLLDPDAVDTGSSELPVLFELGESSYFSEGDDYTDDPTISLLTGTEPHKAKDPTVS

[9] = target: Luciferin 4-monooxygenase (Photinus pyralis, UniProt P08659); test: firefly luciferase enzyme inhibitors, dose response, biochemical, luminescence (AID 1891)
Sequence of Luciferin 4-monooxygenase (P08659 whole entry): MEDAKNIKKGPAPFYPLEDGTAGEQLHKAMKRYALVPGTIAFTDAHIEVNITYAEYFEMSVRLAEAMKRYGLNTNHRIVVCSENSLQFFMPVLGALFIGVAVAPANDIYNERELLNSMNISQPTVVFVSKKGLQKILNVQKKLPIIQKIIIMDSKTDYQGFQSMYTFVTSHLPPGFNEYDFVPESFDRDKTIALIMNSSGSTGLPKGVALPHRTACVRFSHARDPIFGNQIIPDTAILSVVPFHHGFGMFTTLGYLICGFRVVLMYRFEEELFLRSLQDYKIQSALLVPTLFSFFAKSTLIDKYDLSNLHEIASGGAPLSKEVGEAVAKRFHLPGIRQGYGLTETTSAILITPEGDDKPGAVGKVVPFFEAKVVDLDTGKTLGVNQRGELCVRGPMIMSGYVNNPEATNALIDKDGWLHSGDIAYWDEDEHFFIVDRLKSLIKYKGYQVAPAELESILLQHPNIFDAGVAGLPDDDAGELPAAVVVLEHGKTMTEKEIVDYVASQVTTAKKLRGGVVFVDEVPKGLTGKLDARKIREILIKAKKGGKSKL

[10] = Luminescence Cell-Based Dose Confirmation HTS to Identify Inhibitors of Platelet Dense Granule Release. [Related pubchem assays: 1663 (Primary HTS), 1678 (Summary of Project)]; format: functional

SMILES: C=CCNc1nc(C(=O)OCC(=O)c2cccc(Br)c2)cs1
- IC50 [1]: 4 µM (active)

SMILES: C[C@@H]1CC=C[C@@H]2[C@H]1C(=O)N(Cc1ccccc1)[C@H]2c1cccc(C#Cc2ccccc2)c1
- IC50 [1]: 20 µM (active)

SMILES: N#C/C(=C\c1c(N2CCC(C(N)=O)CC2)nc2ccccn2c1=O)S(=O)(=O)c1ccc(Cl)cc1
- IC50 (Fatty acid synthase [2]): 17.1 µM (active)
- IC50 (Fatty acid synthase [3]): 6.07 µM (active)

SMILES: Cc1nc2nc(-c3cccs3)cn2nc1C
- IC50 (Genome polyprotein): 17.6 µM (active)

SMILES: CCCNC(=O)N1CCC2(CC1)CN(Cc1ccc(F)cc1)[C@@H](CO)c1[nH]c3cc(OC)ccc3c12
- AC50 [4]: 5.11 µM (active)

SMILES: COc1ccccc1/C=C(\NC(=O)c1ccc(OC)c(OC)c1)C(=O)Nc1cccc([N+](=O)[O-])c1
- IC50 (Fatty acid synthase [2]): 11.9 µM (active)
- IC50 (Fatty acid synthase [3]): 16 µM (active)

SMILES: O=C(CCN1C(=O)/C(=C/c2ccc(Cl)cc2)SC1=S)Nc1cccc(C(=O)O)c1
- IC50 [1]: 4.43 µM (active)

SMILES: Cc1ccc(-c2n[nH]c(Cc3ccccc3)n2)cc1
- EC50 [5]: 0.105 µM (active)
- EC50 [6]: 2.44 µM (active)
- EC50 (H4): 60.8 µM (active)

SMILES: O=C(CN1C(=O)NC2(CCCCCC2)C1=O)Nc1ccc(Cl)c([N+](=O)[O-])c1
- IC50 (Fatty acid synthase [2]): 8.92 µM (active)
- IC50 (Fatty acid synthase [3]): 5.92 µM (active)

SMILES: CC(C)=C1C2CCC1C1C(=O)N(c3nc(-c4ccccc4)c(C)s3)C(=O)C21 (stereo not drawn)
- IC50 [7]: 8.52 µM (not active)
- EC50 [8]: > 260 µM (inactive)

SMILES: CCS(=O)(=O)c1ccc(-c2csc(-c3ccccc3)n2)c(Cl)c1Cl
- IC50 (Fatty acid synthase [2]): 1.21 µM (active)
- IC50 (Fatty acid synthase [3]): 0.907 µM (active)

SMILES: Cc1nc2sc(C(=O)c3ccccc3)c(N)c2c2c1CCCC2
- EC50 [5]: > 120 µM (not active)
- EC50 [6]: 6.25 µM (active)
- EC50 (H4): 10.5 µM (active)
- EC50 [9]: > 112 µM (not active)
- EC50 [10]: > 112 µM (not active)
